Columns and labels:
[1] = tested on: PBMCs from healthy donors; assay: In vitro IFNγ ELISPOT screening for immune responses to TGFb-1 peptides; type: cell-based, human; settings: for Positive Donors (out of 14): donors with significant response: Fisher test <0.01, ratio peptide:control >2, background subtracted spots >25; for Median Spots: median of background subtracted average spots for each donor across all 14 donors, 7 days after peptide stimulation
Method: FIG. 6. IFNγ ELISPOT identifies strong and frequent immune responses. Immune responses to TGFb-1 peptides were identified in PBMCs from 14 healthy donors. PBMCs were stimulated with the indicated TGFb-1 peptides and responses were analyzed after seven days by IFNγ ELISPOT. Significant responses (*) were defined by a Fisher exact P value<0.01, a ratio of peptide to control spots>2, and background subtracted spots>25. Peptides that elicited responses in the greatest number of donors were subsequently tested for the specificity of the response to TGFb-1.
(§1) For in vitro ELISPOT, peripheral blood […] cells (PBMCs) from healthy donors were pulsed with 20 μM of TGFb-derived peptides and 20 U/ml IL-2 in 24-well plates for 7 days before being used in an ELISPOT assay. The cells were placed in 96-well nitrocellulose ELISPOT plates (MultiScreen IP Filter Plate, MSIPN4W50; Millipore) pre-coated with interferon gamma (IFNγ) capture antibody (Mabtech). TGFb peptides are added to a final concentration of 5 μM, control stimulation (DMSO) added to control wells and plates are incubated at 37° C. for 16-20 hours. After the incubation the cells were washed off and secondary biotinylated Ab (Mabtech) was added for 2 hours at room temperature. Unbound secondary antibody was washed off and streptavidin conjugated alkaline phosphatase (AP) (Mabtech) was added for 1 hour at room temperature. Unbound conjugated enzyme was washed off and the assay was developed by adding BCIP/NBT substrate (Mabtech). Developed ELISPOT plates were analysed on CTL ImmunoSpot S6 Ultimate-V analyzer using Immunospot software v5.1.
(§2) In order to identify whether the low homology peptides selected based on sequence alignment were able to elicit immune responses in humans, the IFNγ ELISPOT assay was used. PBMCs from a total of 14 healthy donors were used to screen for immune responses. PBMCs were exposed to each peptide individually to induce a peptide-specific immune response and proliferation of peptide-specific T cells. Seven days later, the frequency of peptide-specific T cells were assayed by IFNγ ELISPOT. IFNγ ELISPOT identified several peptides that elicited strong (number of spots) and frequent (number of donors) immune responses, as shown in FIG. 6. Five peptides were selected on this basis (see Table 4). These five peptides were subsequently assayed for TGFb-1-selectivity by assaying for cross-reactive immune responses to TGFb-2 and TGFb-3 peptides in the IFNγ ELISPOT assay, as shown in FIG. 7 and FIG. 8.

[2] = tested on: PBMCs from healthy donors; assay: IFNγ ELISPOT recall assay for cross-reactive responses to homologous TGFb-2 and TGFb-3 peptides; type: cell-based, human; settings: for TGFb-1 selectivity / cross-reactivity of IFNγ ELISPOT immune response to homologous TGFb-2 and TGFb-3 peptides: donor PBMCs stimulated with TGFb-1 peptide, recall after seven days
Method: FIG. 7A-B. IFNγ ELISPOT to identify TGFb-1-selective immune responses. Donor PBMCs were stimulated with the indicated TGFb-1 peptides (Pep01-1, Pep04-1, Pep05-1, Pep08-1, Pep09-1 and Pep12-1) and after seven days were tested for a recall response by IFNγ ELISPOT assay using the same TGFb-1 peptide, or homologous TGFb-2 peptide (i.e. Pep01-2, Pep04-2, Pep05-2, Pep08-2, Pep09-2 or Pep12-2) or TGFb-3 peptide (i.e. Pep01-3, Pep04-3, Pep05-3, Pep08-3, Pep09-3 or Pep12-3). The highly homologous peptides Pep12-1, Pep12-2 and Pep12-3 were included as positive controls for detecting cross-reactive immune responses to TGFb-2 and TGFb-3. In FIG. 7A, for each peptide tested, boxplots on the left hand side correspond to responses using the same TGFb-1 peptide, boxplots in the middle correspond to responses using homologous TGFb-2 peptides and boxplots on the right hand side correspond to responses using homologous TGFb-3 peptides.
FIG. 8. IFNγ ELISPOT to identify TGFb-1-selective immune responses. The same data shown in FIG. 7 were plotted to show responses for individual peptides and donors. […] Significant responses (*) were defined by a Fisher exact P value<0.01, a ratio of peptide to control spots>2, and background subtracted spots>25.
as §1, §2

[3] = tested on: mice; assay: IFNγ ELISPOT assay of immune responses in mice vaccinated with synthetic long peptides; type: in vivo, mouse; settings: mice vaccinated with SLP; recall with minimal class I / class II peptides
Method: FIG. 9. TGFb-1 vaccine induces robust immune responses. Mice were vaccinated with two different synthetic long peptides (SLPs) and immune responses were analyzed by IFNγ ELISPOT assay. ELISPOT responses for individual mice are shown. Results for control peptides are clearly indicated.
(§3) For the MC38 tumor study, female C56/BL6 mice (Tacomic) were vaccinated with 100 μg of peptide (SEQ ID: 31 or SEQ ID NO: 34) prepared in DMSO and diluted in water to a total volume of 50 μl (per injection) before mixing with an equal volume of Montanide ISA51 VG ST adjuvant to form an emulsion. The vaccine formulation was administered subcutaneously (s.c.) at the tail base on Days 0, 7, and 14. MC38 tumor cells (2e5 per injection) were administered s.c. in the flank on day 0. Every 3 to 4 days, tumors were measured with a Vernier caliper and the tumor volume was calculated using the formula: V=L×W2/2, where V is tumor volume, L is the length of tumor (longer axis), and W is the width of the tumor (shorter axis).
A murine TGFb-1 vaccine was developed based on synthetic long peptides (SLPs) encoding predicted MHC class I and class II epitopes (SEQ ID NOs: 31-36 in Table 1 below). Pre-clinical studies of anti-TGFb therapies often fail to show any impact on tumor growth when administered as a monotherapy.

[4] = tested on: MC38 tumor; assay: Analysis of tumor microenvironment (TME) by flow cytometry in MC38 tumor study; type: in vivo, mouse; settings: vaccinated Days 0, 7, 14, termination day 21
Method: FIG. 10A-D. TGFb-1 vaccine drives derived immune permissive changes in the TME. Tumor weight was compared between groups at experiment termination (day 21). TGFB-1 expression was assayed by latency associated peptide (LAP) staining.
as §3
Freshly isolated tumors were dissociated by collagenase digestion to yield a single cell suspension for flow cytometry analysis. Approximately 1 million cells were stained for analysis by flow cytometry using a Symphony Al flow cytometer (BD, Becton Dickinson) with the following antibodies, anti-mouse LAP BV421 (BD, 565638), anti-mouse CD4 BV605 (BD, 743156) and anti-mouse CD8 BV786 (BD, 563332). Data analysis was performed using FlowJo software.

[5] = tested on: splenocytes loaded with the assay peptide (SLP1_Ib); assay: In vivo cytotoxicity assay; parameters: species or system mouse; settings: analysed 18 hours after i.v. injection of labeled splenocytes
Method: FIG. 11. TGFb-1 vaccine promotes targeted in vivo cell killing. An in vivo cytotoxicity assay was used to compare cell killing in mice vaccinated with SLP1 versus the class I epitope SLP1_Ib (SIYMFFNT). Vaccinated mice (duplicates) were injected with differentially labeled splenocytes loaded with the assay peptide (SLP1_Ib) or a control peptide. Cell killing was determined by comparing the recovery of the splenocytes using control-peptide-loaded splenocytes as an internal control for cell recovery. OVA peptide was included as a positive control.
The in vivo cytotoxicity assay was performed by injecting peptide-loaded splenocytes from untreated donor mice into vaccinated mice. Freshly isolated splenocytes were incubated with 5 μM peptide in media (RPMI, 10% Fetal Bovine Serum) for 1 hour at 37 C. Splencoytes were loaded with assay peptide (SLP1_Ib) or control peptide (P53, AIYKKSQHM) separately. […] Cell killing was analyzed after 18 hours by isolating splenocytes from injected mice and comparing the recovery of FarRed and Violet labeled cells by flow cytometry. Specific killing of assay pulsed splenocytes was calculated as follows: […]

Row | Sequence | Positive Donors (out of 14) [1] | Median Spots [1] | TGFb-1 selectivity / cross-reactivity of IFNγ ELISPOT immune response to homologous TGFb-2 and TGFb-3 peptides [2] | other results
1 | DINGFTTGRRGDLATIHGMNRPFLLL [Pep07-1, polypeptide fragment of human TGFb-1, positions 235-260] | 5 | 12 | – | –
2 | YDKFKQSTHSIYMFFNTSELREAVPEPVLLS [Pep04-1, polypeptide fragment of human TGFb-1, positions 121-151] | 7 | 34 | strong and frequent immune responses in healthy donors that are selective to TGFb-1 | –
3 | YMFFNTSELREAVPEPVLLSRAELRLLRLKLKVEQHVE [Pep10-1, polypeptide fragment of human TGFb-1, positions 132-169] | 5 | 8 | – | –
4 | REAVPEPVLLSRAELRLLRLKLKVEQHVE [Pep11-1, polypeptide fragment of human TGFb-1, positions 141-169] | 5 | 14 | – | –
5 | SLDTQYSKVLALYNQHNPGASASP [SLP2] | – | – | – | Immune response by IFNγ ELISPOT in vaccinated mice [3]: mainly induced class II response; CD4+ T cell infiltration in TME [4]: significantly enhanced; CD8+ T cell infiltration in TME [4]: remained unchanged
6 | REAVPEPVLLSRAELRLLRL [Pep09-1, polypeptide fragment of human TGFb-1, positions 141-160] | 7 | 37 | strong and frequent immune responses in healthy donors that are selective to TGFb-1 | –
7 | TGRRGDLATIHGMNRPFLLL [Pep08-1, polypeptide fragment of human TGFb-1, positions 241-260] | 7 | 22 | strong and frequent immune responses in healthy donors that are selective to TGFb-1 | –
8 | LMVETHNEIYDKFKQSTHSIYMFF [Pep03-1, polypeptide fragment of human TGFb-1, positions 112-135] | 6 | 16 | – | –
9 | YDKFKQSTHSIYMFFNTSEL [Pep05-1, polypeptide fragment of human TGFb-1, positions 121-140] | 7 | 23 | strong and frequent immune responses in healthy donors that are selective to TGFb-1 | –
10 | LMVETHNEIYDKFKQSTHSIYMFFNTSEL [Pep02-1, polypeptide fragment of human TGFb-1, positions 112-140] | 6 | 28 | – | –
11 | VKRKRIEAIRGQILSKLRLA [Pep12-1, reference compound] | – | – | induced immune responses that cross-reacted with homologous TGFb-2 and TGFb-3 peptides | TGFb-1 selectivity / cross-reactivity of IFNγ ELISPOT immune response to homologous TGFb-2 and TGFb-3 peptides ([2]; listed as Pep12): displayed cross-reactivity in all donors that exhibited significant responses to the TGFb-1 homolog
12 | KDISHSIYMFFNTSDIREAVPEPPL [SLP1] | – | – | – | Immune response by IFNγ ELISPOT in vaccinated mice [3]: recognition of minimal peptides encoding class I and class II epitopes; Cytotoxic activity (specific killing) toward SLP1_Ib-loaded splenocytes in vaccinated mice [5]: results in cytotoxic activity toward cells loaded with the class I peptide antigen SLP1_Ib
13 | SIYMFFNT [SLP1_Ib, TGFb-1 positions 130-137] | – | – | – | Cytotoxic activity (specific killing) toward SLP1_Ib-loaded splenocytes in vaccinated mice [5]: cytotoxic activity was higher
14 | DMPPFFPSENAIPPTFYRPYFRIVREDVSAMEKNASNLV (DMPPFFPSENAIPPTFYRPYFRIVRFDVSAMEKNASNLV) [Pep01-2, homologous polypeptide fragment of human TGFb-2, positions 107-145, reference compound] | – | – | observed only once | Number of other donors in which cross reactivity was not observed ([2]; donors tested with Pep01-1/Pep01-2 peptide combination): 7
15 | DSRDNTLQVDINGFTTGRRGDLATIHGMNRPFLLL [Pep06-1, polypeptide fragment of human TGFb-1, positions 226-260] | 5 | 25 | – | –
16 | LMVETHNEIYDKFKQSTHSIYMFFNTSELREAVPEPVLLS [Pep01-1, polypeptide fragment of human TGFb-1, positions 112-151] | 9 | 67 | strong and frequent immune responses in healthy donors that are selective to TGFb-1 | –
